The source of these data is publication PMC2765658 (Chemical communications (Cambridge, England), 2009).

This series is described as follows: Thermal melting followed by CD ellipticity. The format is physicochemical. The following applies: CD ellipticity followed over 20 - 85 °C; 100 μM peptide in 20% TFE/H2O.

Square brackets hold non-standard residues; d marks the D form. Peptide text beside a SMILES is read from it. Aib = CC(C)(N)C(=O)O

For `CC(=O)NCCCC[C@H](NC(=O)[C@@H](NC(C)=O)C(C)C)C(=O)N[C@@H](CC(C)C)C(=O)NC(C)(C)C(=O)N[C@H](C(=O)N[C@@H](CCCCNC(C)=O)C(=O)N[C@@H](CC(C)C)C(N)=O)C(C)C` [compound 17, Ac-Val-Lys(Ac)-Leu-Aib-Val-Lys(Ac)-Leu-NH2] (Ac-VK(Ac)L[Aib]VK(Ac)L-NH2), the “thermal melting point (Tm)” value worked out at 48 °C.
